Measurements from patent US20240238425A1, “HSD17B13 Inhibitors and/or Degraders” (Pfizer Inc., priority 2022, published 2024).
Where a name gives a salt, the structure may show the parent alone.

Tested on: HiBiT-HSD17β13 fusion protein (N-terminal HiBiT-tagged HSD17β13 isoform D) in Huh7 HiBiT-HSD17β13 OE cells
Assay: Whole-cell Huh7-HSD17B13 HiBiT assay (degrader potency and maximal efficacy, luminescence readout)
Type: cell-based, human
Conditions: 24 hour incubation, geometric mean, * = geometric mean for all forms tested (parent and salt forms); for DC50: read-out: Huh7_HIBIT-HSD17β13_DC50 GMean DC50; for Huh7_HIBIT-HSD17β13_DC50 GMean Asymptote Maximum: max. concentration 1 μM
In short: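 Luminescence from lytic HiBiT detection tracked residual HiBiT-HSD17β13 (isoform D, N-terminal tag) in a stable Huh7 overexpressing clone after 24 h compound treatment at 37° C, 11 concentrations up to 1 μM final. Percent effect used DMSO (zero) and parental Huh7 (high) wells; four-parameter fit gave 50% degradation; viability checked by CellTiter-Glo.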

DC50	SMILES	Huh7_HIBIT-HSD17β13_DC50 GMean Asymptote Maximum
0.15 nM	Cn1c(=O)n(C2CCC(=O)NC2=O)c2ccc(CCCN3CCN(c4cnc(-c5ccn6cc([C@]78CC[C@](CNC(=O)c9cc(F)c(O)c(F)c9F)(CC7)CC8)nc6c5)nc4)CC3)cc21 (mixture of isomers) [Example 120, N-{[4-(7-{5-[4-(3-{1-[(3RS)-2,6-dioxopiperidin-3-yl]-3-methyl-2-oxo-2,3-dihydro-1H-benzimidazol-5-yl}propyl)piperazin-1-yl]pyrimidin-2-yl}imidazo[1,2-a]pyridin-2-yl)bicyclo[2.2.2]octan-1-yl]methyl}-2,3,5-trifluoro-4-hydroxybenzamide, trifluoroacetate salt]	82%
0.2 nM	Cn1c(=O)n(C2CCC(=O)NC2=O)c2ccc(CCCN3CCN(c4nccc(-c5nc([C@]67CC[C@](CNC(=O)c8cc(F)c(O)c(F)c8F)(CC6)CC7)no5)n4)CC3)cc21 (mixture of isomers) [Example 121, formate salt]	85%
0.23 nM	Cc1sc([C@]23CC[C@](CNC(=O)c4cc(F)c(O)c(F)c4F)(CC2)CC3)nc1-c1ccnc(N2CCN(CCCc3ccc4c(c3)n(C)c(=O)n4C3CCC(=O)NC3=O)CC2)n1 (mixture of isomers) [Example 122, N-{[4-(4-{2-[4-(3-{1-[(3RS)-2,6-dioxopiperidin-3-yl]-3-methyl-2-oxo-2,3-dihydro-1H-benzimidazol-5-yl}propyl)piperazin-1-yl]pyrimidin-4-yl}-5-methyl-1,3-thiazol-2-yl)bicyclo[2.2.2]octan-1-yl]methyl}-2,3,5-trifluoro-4-hydroxybenzamide]	73%
0.23 nM	Cn1c(=O)n(C2CCC(=O)NC2=O)c2ccc(CCCN3CCN(c4nc(-c5nc([C@]67CC[C@](CNC(=O)c8cc(F)c(O)c(F)c8F)(CC6)CC7)no5)cc(N5CCOCC5)n4)CC3)cc21 (mixture of isomers) [Example 123, N-{[4-(5-{2-[4-(3-{1-[(3RS)-2,6-dioxopiperidin-3-yl]-3-methyl-2-oxo-2,3-dihydro-1H-benzimidazol-5-yl}propyl)piperazin-1-yl]-6-(morpholin-4-yl)pyrimidin-4-yl}-1,2,4-oxadiazol-3-yl)bicyclo[2.2.2]octan-1-yl]methyl}-2,3,5-trifluoro-4-hydroxybenzamide]	79%
0.27 nM	COc1c(C(=O)NC[C@]23CC[C@](c4noc(-c5ccnc(N6CCN(CCCc7ccc8c(c7)n(C)c(=O)n8C7CCC(=O)NC7=O)CC6)n5)n4)(CC2)CC3)cc(F)c(O)c1F (mixture of isomers) [Example 124, N-{[4-(5-{2-[4-(3-{1-[(3RS)-2,6-dioxopiperidin-3-yl]-3-methyl-2-oxo-2,3-dihydro-1H-benzimidazol-5-yl}propyl)piperazin-1-yl]pyrimidin-4-yl}-1,2,4-oxadiazol-3-yl)bicyclo[2.2.2]octan-1-yl]methyl}-3,5-difluoro-4-hydroxy-2-methoxybenzamide, trifluoroacetate salt]	72%
0.28 nM	Cn1c(=O)n(C2CCC(=O)NC2=O)c2ccc(CCCN3CCN(c4nc(-c5nc([C@]67CC[C@](CNC(=O)c8cc(F)c(O)c(F)c8F)(CC6)CC7)no5)cc(-n5ccnc5)n4)CC3)cc21 (mixture of isomers) [Example 125, N-{[4-(5-{2-[4-(3-{1-[(3RS)-2,6-dioxopiperidin-3-yl]-3-methyl-2-oxo-2,3-dihydro-1H-benzimidazol-5-yl}propyl)piperazin-1-yl]-6-(1H-imidazol-1-yl)pyrimidin-4-yl}-1,2,4-oxadiazol-3-yl)bicyclo[2.2.2]octan-1-yl]methyl}-2,3,5-trifluoro-4-hydroxybenzamide, formate salt]	85%
0.36 nM	COc1nc(-c2ccc3cn([C@H]4CC[C@H](CNC(=O)c5cc(F)c(O)c(F)c5F)CC4)nc3c2)nc2c1CN(CCCc1ccc3c(c1)n(C)c(=O)n3C1CCC(=O)NC1=O)C2 (mixture of isomers) [Example 126, N-{[(1r,4r)-4-{6-[6-(3-{1-[(3RS)-2,6-dioxopiperidin-3-yl]-3-methyl-2-oxo-2,3-dihydro-1H-benzimidazol-5-yl}propyl)-4-methoxy-6,7-dihydro-5H-pyrrolo[3,4-d]pyrimidin-2-yl]-2H-indazol-2-yl}cyclohexyl]methyl}-2,3,5-trifluoro-4-hydroxybenzamide, trifluoroacetate salt]	84%
0.37 nM	Cn1c(=O)n(C2CCC(=O)NC2=O)c2ccc(CCCN3CCN(c4nc(-c5nc([C@]67CC[C@](CNC(=O)c8cc(F)c(O)c(F)c8F)(CC6)CC7)no5)cc(N5CCCC5)n4)CC3)cc21 (mixture of isomers) [Example 127, N-{[4-(5-{2-[4-(3-{1-[(3RS)-2,6-dioxopiperidin-3-yl]-3-methyl-2-oxo-2,3-dihydro-1H-benzimidazol-5-yl}propyl)piperazin-1-yl]-6-(pyrrolidin-1-yl)pyrimidin-4-yl}-1,2,4-oxadiazol-3-yl)bicyclo[2.2.2]octan-1-yl]methyl}-2,3,5-trifluoro-4-hydroxybenzamide, trifluoroacetate salt]	79%
0.4 nM	COc1cc(-c2nc([C@]34CC[C@](CNC(=O)c5cc(F)c(O)c(F)c5F)(CC3)CC4)no2)nc(N2CCN(CCCc3ccc4c(c3)n(C)c(=O)n4C3CCC(=O)NC3=O)CC2)n1 (mixture of isomers) [Example 128, N-{[4-(5-{2-[4-(3-{1-[(3RS)-2,6-dioxopiperidin-3-yl]-3-methyl-2-oxo-2,3-dihydro-1H-benzimidazol-5-yl}propyl)piperazin-1-yl]-6-methoxypyrimidin-4-yl}-1,2,4-oxadiazol-3-yl)bicyclo[2.2.2]octan-1-yl]methyl}-2,3,5-trifluoro-4-hydroxybenzamide]	79%
0.42 nM	Cn1c(=O)n(C2CCC(=O)NC2=O)c2ccc(CCCN3Cc4ccc(-c5ccc6c(C7CC7)n([C@H]7CC[C@H](CNC(=O)c8cc(F)c(O)c(F)c8F)CC7)nc6c5)cc4C3)cc21 (mixture of isomers) [Example 129, N-{[(1r,4r)-4-{3-cyclopropyl-6-[2-(3-{1-[(3RS)-2,6-dioxopiperidin-3-yl]-3-methyl-2-oxo-2,3-dihydro-1H-benzimidazol-5-yl}propyl)-2,3-dihydro-1H-isoindol-5-yl]-2H-indazol-2-yl}cyclohexyl]methyl}-2,3,5-trifluoro-4-hydroxybenzamide, trifluoroacetate salt]	83%
0.5 nM	Cn1c(=O)n(C2CCC(=O)NC2=O)c2ccc(CCCN3CCN(c4cnc(-c5ccn6cc([C@]78CC[C@](CNC(=O)c9cc(F)c(O)c(F)c9F)(CC7)CC8)nc6c5)cn4)CC3)cc21 (mixture of isomers) [Example 130, N-{[4-(7-{5-[4-(3-{1-[(3RS)-2,6-dioxopiperidin-3-yl]-3-methyl-2-oxo-2,3-dihydro-1H-benzimidazol-5-yl}propyl)piperazin-1-yl]pyrazin-2-yl}imidazo[1,2-a]pyridin-2-yl)bicyclo[2.2.2]octan-1-yl]methyl}-2,3,5-trifluoro-4-hydroxybenzamide, trifluoroacetate salt]	83%
